Experimental data taken from patent US7067619B2, “Integrin-binding peptides” (La Jolla Cancer Research Foundation, priority 1993, dated 2006).
Bridge positions count the residues as written; N and C are the ends. Ends that are not written are not given here. Peptide text beside a SMILES is read from it.

Legend:
αvβ3 integrin [1] = target: T1, αvβ3 integrin (Homo sapiens, UniProt P05106+P06756); assay: Inhibition of αvβ3-mediated attachment of IMR-90 cells to vitronectin; assay type: cell-based; parameters: endogenous in cells; host or cells: IMR-90 cells
Protocol: FIG. 13—[…] attachment of IMR-90 cells to vitronectin. The cells that bound were determined as described herein.
Cell lines expressing different integrins were used to examine peptide inhibition of integrin function. A human melanoma cell line, C8161, a fibroblast cell line, WI-38, and an osteosarcoma cell line, MG-63 (described by Seftor et al., Canc. Res., 53:3411–3415 (1993); Vogel et al., J. Biol. Chem., 265:5934–5937 (1990); and Pytela et al. (1985), supra, respectively, each of which is incorporated herein by reference) attach to fibronectin through α5β1 integrin, as does B2/α27, a CHO cell line transfected with human α5. B2/C1, the control parental CHO line (Bauer et al., J. Cell. Biol. 116:477–487 (1992), which is incorporated herein by reference), attaches via […]. CHO cells C11 and NIH 3T3 cells express the endogenous Chinese hamster and mouse α5β1 integrins, respectively. The human melanoma cells, A375-M, attach to fibronectin through both α5β1 and α4β1 integrins (Mould et al., J. Biol. Chem. 265:4020–4024 (1990), which is incorporated herein by reference). […]
Cell lines expressing fibronectin-binding integrins were used to determine peptide activities against these integrins in the cell attachment assay described by Ruoslahti et al., Meth. […] Bound cells were quantitated by staining with 0.1% amido black.

αvβ5 integrin = αvβ5 integrin (Homo sapiens, UniProt P06756+P18084); assay: Inhibition of αvβ5-mediated cell attachment to vitronectin; assay type: cell-based; parameters: αvβ5-mediated attachment of HT-29 cells to vitronectin; endogenous in cells; host or cells: HT-29 cells; UCLA-P3 cells
From the text: FIG. 12—αvβ5-mediated attachment of HT-29 cells to vitronectin.
Cell lines expressing different integrins were used to examine peptide inhibition of integrin function. A human melanoma cell line, C8161, a fibroblast cell line, WI-38, and an osteosarcoma cell line, MG-63 (described by Seftor et al., Canc. Res., 53:3411–3415 (1993); Vogel et al., J. Biol. Chem., 265:5934–5937 (1990); and Pytela et al. (1985), supra, respectively, each of which is incorporated herein by reference) attach to fibronectin through α5β1 integrin, as does B2/α27, a CHO cell line transfected with human α5. B2/C1, the control parental CHO line (Bauer et al., J. Cell. Biol. 116:477–487 (1992), which is incorporated herein by reference), attaches via […]. CHO cells C11 and NIH 3T3 cells express the endogenous Chinese hamster and mouse α5β1 integrins, respectively. The human melanoma cells, A375-M, attach to fibronectin through both α5β1 and α4β1 integrins (Mould et al., J. Biol. Chem. 265:4020–4024 (1990), which is incorporated herein by reference). CHO cell line B2/v7 express the αvβ1 integrin (Zhang et al., J. Cell. Biol. 122:235–242 (1993), which is incorporated herein by reference). The vitronectin-binding integrins […] and αvβ3 were assayed using the cell line HT-29 and IMR-90, respectively (Koivunen et al., J. Biol. Chem. 268: 20205–20210 (1993)).
Cell lines expressing fibronectin-binding integrins were used to determine peptide activities against these integrins in the cell attachment assay described by Ruoslahti et al., Meth. Enzymol., 144:803–831 (1982), which is incorporated herein by reference. Human plasma fibronectin was iodinated as described by Morla and Ruoslahti, J. Cell Biol., 118:421–429 (1992), which is incorporated herein by reference. Vitronectin was obtained from Telios Pharmaceuticals (San Diego, Calif.). […] Peptide was coated on plastic by incubating at 37° C. for 2 hours in phosphate buffered saline containing 0.25% glutaraldehyde to crosslink the peptide. Free binding sites on the plastic were blocked using BSA. Approximately 1×10^5 cells per well were allowed to attach for 1 hour in the presence or absence of competing peptides. Bound cells were quantitated by staining with 0.1% amido black.
Inhibition of cell attachment mediated by either fibronectin- or vitronectin-binding integrins was performed to determine peptide specificity in a biologically relevant system. The assays and cell lines were performed as described above. FIGS. 5 and 6 show the results of cell attachment mediated by the fibronectin binding integrins α5β1 and αvβ1.

αvβ3 integrin [2] = target: T1, αvβ3 integrin; assay: Inhibition of peptide-displaying phage binding to αvβ3 integrin by synthetic peptides; parameters: The αvβ3, αvβ5 and α5β1 integrins were isolated from human placental extracts; from tissue; host or cells: human placenta
From the text: In addition, most of the phage-binding activity in the αvβ3 preparation was captured into microliter wells coated with antibodies against the αv or β3 subunits as described previously (Koivunen et al., J. Biol. Chem., 268:20205–10 (1993). The αIIbβ3 integrin was isolated from outdated platelets (Pytela et al., Science, 231:1559–1562 (1986)).
Binding of individual cloned phage to integrins was studied in microliter wells as described in Koivunen et al., J. Cell. Biol., 124:373–380 (1994). Phage binding to α5β1 and αvβ3 were assayed in TBS buffer containing 1% BSA and 1 mM MnCl2 and binding to αvβ5 in the presence of 1 mM CaCl2. Phage that were bound were determined by their ability to infect F-pilus positive K91kan bacteria. Bacteria were grown overnight in microliter wells in the presence of tetracycline and the absorbance indicative of bacterial growth was read at 600 nm with an ELISA plate reader.
The ability of […] [SEQ ID NO:12] and CRGDC [SEQ ID NO:37] containing peptides to inhibit binding of CRGDCL-displaying [SEQ ID NO:7] phage to the microwells coated with αvβ3 integrin also was examined. CRGDCL-displaying [SEQ ID NO:7] phage were added to a well and either cyclic […] [SEQ ID NO:6] or cyclic […] [SEQ ID NO:5] was added to compete for binding. Binding was quantitated as described above.

T1 sequence (P06756 31-889 limits assumed): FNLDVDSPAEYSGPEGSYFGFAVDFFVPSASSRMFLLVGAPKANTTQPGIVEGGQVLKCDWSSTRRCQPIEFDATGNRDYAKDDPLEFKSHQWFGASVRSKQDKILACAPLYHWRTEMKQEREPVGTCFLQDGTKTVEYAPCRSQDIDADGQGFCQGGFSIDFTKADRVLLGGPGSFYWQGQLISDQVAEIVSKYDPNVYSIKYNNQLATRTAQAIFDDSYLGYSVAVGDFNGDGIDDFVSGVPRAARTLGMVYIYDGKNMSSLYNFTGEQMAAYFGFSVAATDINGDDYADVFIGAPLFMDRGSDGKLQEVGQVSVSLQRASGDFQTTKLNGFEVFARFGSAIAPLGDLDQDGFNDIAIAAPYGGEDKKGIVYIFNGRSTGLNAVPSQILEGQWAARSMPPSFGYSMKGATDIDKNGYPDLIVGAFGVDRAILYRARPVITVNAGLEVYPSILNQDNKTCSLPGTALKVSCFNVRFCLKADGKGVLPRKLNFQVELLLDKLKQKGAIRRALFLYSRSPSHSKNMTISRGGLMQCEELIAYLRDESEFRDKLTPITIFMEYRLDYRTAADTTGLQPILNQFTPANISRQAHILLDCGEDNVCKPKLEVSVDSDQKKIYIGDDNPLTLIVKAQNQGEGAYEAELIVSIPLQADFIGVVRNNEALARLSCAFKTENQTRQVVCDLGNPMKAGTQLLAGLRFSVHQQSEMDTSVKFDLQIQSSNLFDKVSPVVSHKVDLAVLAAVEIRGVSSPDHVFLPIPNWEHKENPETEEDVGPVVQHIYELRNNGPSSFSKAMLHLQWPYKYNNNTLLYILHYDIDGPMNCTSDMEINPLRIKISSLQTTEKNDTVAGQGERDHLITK
T1 sequence (P06756 891-1048 partner limits assumed): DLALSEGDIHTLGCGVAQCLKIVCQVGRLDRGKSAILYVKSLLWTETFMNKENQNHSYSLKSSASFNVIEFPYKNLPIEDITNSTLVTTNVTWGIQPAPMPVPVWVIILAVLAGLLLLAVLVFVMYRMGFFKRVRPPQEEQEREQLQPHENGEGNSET
T1 sequence (P05106 27-788): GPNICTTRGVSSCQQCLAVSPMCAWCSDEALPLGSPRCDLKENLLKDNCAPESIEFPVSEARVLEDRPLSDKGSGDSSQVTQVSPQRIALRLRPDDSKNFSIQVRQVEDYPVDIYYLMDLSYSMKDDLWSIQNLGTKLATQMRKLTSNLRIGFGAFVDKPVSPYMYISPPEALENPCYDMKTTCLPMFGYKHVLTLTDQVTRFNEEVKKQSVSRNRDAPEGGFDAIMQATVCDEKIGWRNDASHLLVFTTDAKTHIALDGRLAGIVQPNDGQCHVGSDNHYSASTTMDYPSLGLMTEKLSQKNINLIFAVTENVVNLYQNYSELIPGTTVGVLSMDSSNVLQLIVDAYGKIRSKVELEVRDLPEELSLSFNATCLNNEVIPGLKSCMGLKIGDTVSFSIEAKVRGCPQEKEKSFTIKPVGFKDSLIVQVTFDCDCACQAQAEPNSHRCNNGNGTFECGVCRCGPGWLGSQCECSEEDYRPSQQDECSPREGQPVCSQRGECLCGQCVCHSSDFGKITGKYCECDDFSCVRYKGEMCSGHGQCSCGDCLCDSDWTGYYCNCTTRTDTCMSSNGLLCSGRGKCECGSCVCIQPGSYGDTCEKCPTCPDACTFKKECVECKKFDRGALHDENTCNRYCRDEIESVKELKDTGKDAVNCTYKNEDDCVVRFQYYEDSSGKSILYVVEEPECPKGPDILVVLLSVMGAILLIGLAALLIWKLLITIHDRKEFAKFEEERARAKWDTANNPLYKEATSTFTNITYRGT
Chain of αvβ5 integrin (P06756 31-889 limits assumed): as the sequence (P06756 31-889 limits assumed) above
Chain of αvβ5 integrin (P06756 891-1048 partner limits assumed): as the sequence (P06756 891-1048 partner limits assumed) above
Chain of αvβ5 integrin (P18084 24-799): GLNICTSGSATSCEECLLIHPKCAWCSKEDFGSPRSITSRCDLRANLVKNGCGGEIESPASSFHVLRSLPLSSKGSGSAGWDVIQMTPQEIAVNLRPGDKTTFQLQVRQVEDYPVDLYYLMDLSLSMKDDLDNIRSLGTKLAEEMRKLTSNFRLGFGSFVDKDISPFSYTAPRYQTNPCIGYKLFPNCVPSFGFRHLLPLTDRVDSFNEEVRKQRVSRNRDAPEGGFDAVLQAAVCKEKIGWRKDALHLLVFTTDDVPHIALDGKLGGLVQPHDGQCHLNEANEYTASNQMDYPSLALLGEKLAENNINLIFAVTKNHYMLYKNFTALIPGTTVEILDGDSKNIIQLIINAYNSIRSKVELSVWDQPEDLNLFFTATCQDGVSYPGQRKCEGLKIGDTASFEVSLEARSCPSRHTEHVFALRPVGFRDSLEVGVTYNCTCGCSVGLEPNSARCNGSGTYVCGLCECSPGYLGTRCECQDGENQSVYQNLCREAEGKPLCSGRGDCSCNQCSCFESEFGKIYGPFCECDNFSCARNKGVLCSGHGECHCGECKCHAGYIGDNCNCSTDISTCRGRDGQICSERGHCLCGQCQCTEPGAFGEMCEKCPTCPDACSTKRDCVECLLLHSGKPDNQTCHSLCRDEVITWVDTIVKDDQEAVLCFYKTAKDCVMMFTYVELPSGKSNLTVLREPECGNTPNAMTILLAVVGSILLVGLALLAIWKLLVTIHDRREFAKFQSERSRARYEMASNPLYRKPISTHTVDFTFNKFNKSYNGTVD

C[C@H](N)C(=O)N[C@H]1CSSC[C@@H](C(=O)NCC(=O)O)NC(=O)[C@H](Cc2ccccc2)NC(=O)[C@@H]2CSSC[C@H](NC(=O)[C@H](CC(=O)O)NC1=O)C(=O)N[C@@H](CCCNC(=N)N)C(=O)NCC(=O)N[C@@H](CC(=O)O)C(=O)N2 (H-ACDCRGDCFCG-OH; disulfide 2-10, 4-8)
effectiveness relative to *CRGDC* in IMR-90 attachment to vitronectin (αvβ3 integrin [1]; more effective than *CRGDC*): 20 fold
affinity relative to *CRGDC* in HT-29 attachment to vitronectin (αvβ5 integrin; HT-29 cells, higher than *CRGDC*): 40 fold
affinity relative to A*CRGDGWC*G in HT-29 attachment to vitronectin (αvβ5 integrin; HT-29 cells, higher than A*CRGDGWC*G): 40 fold
enhancement in activity relative to *CRGDC* in UCLA-P3 cells (αvβ5 integrin; UCLA-P3 cells): 20 fold
inhibition of phage binding to αvβ3 relative to *CRGDC* (αvβ3 integrin [2]; better than *CRGDC*): 5 fold

A*CPSRLDSPC*G (ACPSRLDSPCG; disulfide 2-10 (inferred))
concentration at which inhibitory activity was shown (αvβ3 integrin [1]; vitronectin): higher than 1 mM
affinity for αvβ3 (αvβ3 integrin [2]; phage binding experiments): low
selectivity towards the αvβ3 integrin (αvβ3 integrin [2]; phage binding experiments): partial selectivity

GACRRETAWACGA
activity against cell attachment to vitronectin (αvβ5 integrin; all concentrations tested, FIG. 7 (sentence prints αvβ1)): essentially devoid of activity
inhibition of binding of CRGDCL-displaying phage to integrin-coated wells (αvβ3 integrin [2]; CRGDCL-displaying phage, αvβ3-coated wells, FIG. 3 (result sentence prints α5β1)): ineffective
